Structures can show the parent of a compound that is named as a salt.
What was measured:
Format in all cases: cell-based
KRAS G12V HeLa cell line = assay: Wild-type versus KRAS HeLa cell viability: oncogenic KrasG12V transgene; conditions: Homo sapiens; HeLa cells expressing KRAS G12V, 72 hours
Method: (§1) Assay to Measure the Effects of Compounds of the Invention on Wild-Type Versus KRAS HeLa Cell Viability
(§2) Identifying synthetic lethal interactions between targeted small molecule therapies and characterised oncogenic mutations is a goal of modern oncology drug discovery efforts. To this end, PLK1-PBD inhibitors were tested on HeLa cells engineered to inducibly express wild-type or oncogenic KrasG12V transgenes using the FLP-in/T-Rex system (Invitrogen). Cells were plated, and then treated with or without Doxycycline to induce transgene expression, and then treated with serially-diluted PBD inhibitors. After 72 hours of incubation, cell viability was assessed using the Cell Titre Blue reagent (Promega) and a BMG Pherastar plate reader. The effect of PBD inhibition on cell viability with either wild-type or oncogenic G12V KRAS was assessed using the graphing/curve-fitting packages in GraphPad Prism.

HeLa cells = assay: Arresting cells in mitosis (Mitotic Index, phosphorylated Histone H3 immunofluorescence); conditions: HeLa cell line, 24 hours; for EC50: Homo sapiens, Mitotic Index, read-out: EC50
Method: Assay to Measure the Effects of Compounds of the Invention on Arresting Cells in Mitosis
Inhibiting the ability of PLK1 to bind to its phosphopeptide binding partners through the PBD causes cells to arrest in mitosis. Experimentally, this is measured by assessing the number of cells which are in mitosis at a certain time after treatment with a PLK1-PBD inhibitor by immunofluorescent detection of phosphorylated Histone H3 (pH3), a marker which is only present in mitotic cells. PLK1-PBD inhibitors are expected to cause a dose-dependent increase in pH3-positive cells, which is reported as Mitotic Index (MI)—the percentage of cells which, at a given time, are positive for this mitotic mark. The following protocol has been used to measure MI: • 1. Plate HeLa cells at 10,000/well in 100 μL/well in clear flat-bottom 96-well plates and incubate overnight. • 2. Immediately prior to treatment, dilute compounds in medium in a 96-well round-bottom plate. Make up all compounds at 5 times final desired concentration on cells, and serially dilute 1:2 across the plate ensuring that there is 100 μL of each concentration (start with 200 μl of the top concentration on the left of the plate). […] Treat cells by adding 25 μL from the compound dilution plate to triplicate wells. • 4. Incubate cells with compound for 24 hours. • 5. After 24 hours, fixation and staining is carried out as follows: • 6. Dilute 37% formaldehyde in PBS to give a 12.95% solution by adding 3.5 mL formaldehyde to 6.5 mL of PBS. • 7. Add 50 μL of formaldehyde fixation solution directly to each well of cells (which already contain 125 μL medium). • 8. Incubate at room temp for 10 minutes. • 9. Remove fixative and add 100 μL/well PBS+0.1% Triton X-100 for 10 minutes. • 10. Aspirate and add 100 μL/well PBS+1% BSA. • 11. Aspirate and add 50 μL/well of primary antibody (anti-PH3 [1:2000]/anti-MPM2 [1:1000]) diluted in PBS+1% BSA. Incubate for 1 hour. • 12. Wash×2 with 100 μL/well PBS+1% BSA. • 13. Add 50 μL/well of secondary antibody plus Hoechst stain (anti-rabbit Alexafluor 488 [1:500]; anti-mouse Alexafluor 546 [1:500]+Hoechst 33342 [1:2500 final concentration=4 μg/mL])diluted in PBS+1% BSA. Incubate for 1 hour. • 14. Wash twice with 100 μL/well PBS+1% BSA. • 15. Aspirate and add 100 μL/well PBS. Plates can be stored at 4° C. in PBS for several weeks before scanning on the Cellomics Arrayscan. […] Scan on Cellomics using Target Activation Bioapplication. • 17. MI data emerging from the Cellomic Bioapplication can be used to plot MI versus compound concentration, and subsequently used to generate an EC50 value for each compound using an appropriate graphing/curve-fitting package such as GraphPad Prism.

wild-type HeLa cell line = assay: Wild-type versus KRAS HeLa cell viability: wild-type KRAS transgene; conditions: Homo sapiens; HeLa cells expressing wild-type KRAS, 72 hours; read-out: WT GI50
Method: as §1, §2

HCT116 cells = assay: Effects on HCT116 colorectal cancer cell viability (cell titre blue, 72 hours); conditions: Homo sapiens, HCT-116, HCT116 cell line
[1] = test system: HCT116 cells (a mutant KRAS G-13D expressing cell line); assay: Drug resistance studies in HCT116 cells; conditions: five times the half maximal growth inhibiting amount, twenty two days

SMILES | GI50 (KRAS G12V HeLa cell line) [nM] | % mitotic cells (HeLa cells) [%] | EC50 (HeLa cells) [nM] | GI50 (wild-type HeLa cell line) [nM] | GI50 (HCT116 cells) [nM] | formation of drug-resistant colonies [1]
CN(C)CCNC(=O)c1cccc(-c2ccc(-c3ccc(Br)cc3)n2-c2ccccc2C(F)(F)F)c1 [Example 2, 3-[5-(4-Bromophenyl)-1-[2-(trifluoromethyl)phenyl]pyrrol-2-yl]-N-[2-(dimethylamino)ethyl]benzamide Hydrochloride] | 50 | 86 | 860 | 180 | – | –
CN(C)CCNC(=O)c1ccc(-c2ccc(-c3ccc(Br)cc3)n2-c2ccccc2C(F)(F)F)cc1 [Example 9, 4-[5-(4-Bromophenyl)-1-[2-(trifluoromethyl)phenyl]pyrrol-2-yl]-N-[2-(dimethylamino)ethyl]benzamide Hydrochloride] | 20 | 89 | 190 | 50 | 30 | –
CNCCNC(=O)c1cccc(-c2ccc(-c3ccc(Br)cc3)n2-c2ccccc2C(F)(F)F)c1 [Example 23] | 80 | 79 | 740 | 240 | 390 | –
CN(C)CCCNC(=O)c1cccc(-c2ccc(-c3ccc(Br)cc3)n2-c2ccccc2C(F)(F)F)c1 [Example 24] | 80 | 77 | 620 | 260 | 490 | –
CN(C)CCCNC(=O)c1ccc(-c2ccc(-c3ccc(F)cc3)n2-c2ccccc2C(F)(F)F)cc1 [Example 60, hydrochloride] | 10 | – | – | 30 | 60 | –
CN(C)CCNC(=O)c1ccc(-c2ccc(-c3ccc(Cl)cc3)n2-c2ccccc2C(F)(F)F)nc1 [Example 61, hydrochloride] | 5 | – | – | 20 | 60 | –
CN(C)CCCNC(=O)c1ccc(-c2ccc(-c3ccc(Cl)cc3)n2-c2ccccc2C(F)(F)F)nc1 [Example 62, hydrochloride] | 8 | – | – | 20 | 120 | –
CN1CC[C@@H](NC(=O)c2ccc(-c3ccc(-c4ccc(Cl)cc4)n3-c3ccccc3C(F)(F)F)cc2)C1 [Example 70, hydrochloride] | 3 | – | – | 5 | 20 | –
CN1CC[C@H](NC(=O)c2ccc(-c3ccc(-c4ccc(Cl)cc4)n3-c3ccccc3C(F)(F)F)cc2)C1 [Example 71, hydrochloride] | 5 | – | – | 10 | 20 | –
CN(C)CCNC(=O)c1ccc(-n2ncc(-c3ccc(Cl)cc3)c2-c2ccccc2C(F)(F)F)cc1 [Example 82, 4-[4-(4-Chlorophenyl)-5-[2-(trifluoromethyl)phenyl]pyrazol-1-yl]-N-[2-(dimethylamino)ethyl]-benzamide Hydrochloride] | 10 | – | – | 30 | 40 | –
O=C(NCCN1CCNCC1)c1ccc(-c2ccc(-c3ccc(Cl)cc3)n2-c2ccccc2C(F)(F)F)cc1 [Example 87, hydrochloride] | 8 | – | – | 20 | 60 | –
CN(C)CCNC(=O)Cc1ccc(-c2ccc(-c3ccc(Cl)cc3)n2-c2ccccc2C(F)(F)F)cc1 [Example 91, hydrochloride] | 5 | – | – | 10 | 10 | –
CC[C@@H]1C(=O)N(C)c2cnc(Nc3ccc(C(=O)NC4CCN(C)CC4)cc3OC)nc2N1C1CCCC1 [Example B12536, 4-[[(7R)-8-cyclopentyl-7-ethyl-5,6,7,8-tetrahydro-5-methyl-6-oxo-2-pteridinyl]amino]-3-methoxy-N-(1-methyl-4-piperidinyl)benzamide, reference compound] | – | – | – | – | – | drug-resistant colonies were formed

From patent publication US11208405B2, “Pyrrole derivatives as PLK1 inhibitors” (SENTINEL ONCOLOGY LIMITED, priority 2017, dated 2021)
